Data on one compound can be found in US6417393B1, “Phenyl derivatives containing an acidic group, their preparation and their use as chloride channel blockers” (Neurosearch A/S, priority 1996, dated 2002).

The term IC50 denotes the point on the concentration scale where inhibition reaches its midpoint.

In one series the test system is erythrocytes. As to the kind of experiment: Valinomycin induced cell volume loss (relative volume of packed cells). It is filed as cell-based. As to conditions: valinomycin for 5 min. The procedure: Inducing a massive water and salt loss (KCI) by addition the K^+-ionophore valinomycin to the suspension for 5 min reduced the cell volume by 26%.
Series [1] relates to erythrocyte chloride channels. Nature of the series: Cl- conductance (GCl) from concomitant measurements of conductive Cl- netfluxes and membrane potentials in suspensions of normal erythrocytes. It is filed as cell-based, Human. The conditions noted are these: suspension of normal erythrocytes; read-out: IC50-value for block of GCl. An excerpt:
(§1) The compounds of the present invention are potent blockers of chloride channels in normal as well as sickle cell erythrocytes.
(§2) All dose-response experiments were therefore performed by concomitant measurements of conductive netfluxes of Cl^− (JCl) and membrane potentials (Vm) in suspensions of erythrocytes (Bennekou, P. and Christophersen, P. (1986), Flux ratio of Valinomycin—Mediated K^+ Fluxes across the Human Red Cell Membrane in the presence of the Protronophore CCCP. J. Membrane Biol. 93, 221-227. ). The membrane Cl^−-conductances were calculated by the following equation (Hodgkin, A. L. and Huxley, A. F. (1952) The components of membrane conductance in the giant axon of loligo. J. Physiol. Lond. 116, 449-472): [formula]
(§3) where F is the Faraday constant and ECl is the Nernst potential for the Cl-ion.

Another series relates to sickle erythrocytes. As to the kind of experiment: K+ flux from sickle erythrocytes, basal and deoxygenation induced (extracellular K+-concentration vs time). The format is cell-based. The conditions noted are these: 10 μM; oxygenated sickle erythrocytes. The text has this:
Deoxygenation induced permeability increases of sickle cells were estimated by measuring the extracellular K^+-concentration vs time. […] The K^+ flux from oxygenated sickle erythrocytes was 2-3 times higher than from normal erythrocytes and these fluxes was accelerated 4-8 times upon deoxygenation.

In series [2] the test system is chloride channels of sickle cell erythrocytes. Nature of the series: Cl- conductance (GCl) in oxygenated and deoxygenated homozygoteous sickle cell erythrocytes. The format is cell-based, Human. The conditions noted are these: oxygenated as well as deoxygenated homozygoteous sickle cell erythrocytes; compared with normal erythrocytes.
From the text: as §1, §2, §3

For a further series, the system named is mice. As to the kind of experiment: Toxicity to mice. The format is in vivo. As to conditions: up to 150 mg/kg i.p. and i.v. The procedure: N-(3-Trifluoromethylphenyl)-N′-(2-carboxyphenyl) urea was non-toxic to mice at concentrations up to 150 mg/kg i.p. and i.v.

`O=C(Nc1cccc(C(F)(F)F)c1)Nc1ccccc1C(=O)O` [3′-Trifluoromethylphenyl-2-carboxyphenyl Urea]: the IC50 in the series with erythrocytes (Erythrocyte, 5 min, read-out: IC50-value for reduction of valinomycin induced volume loss) stood at 1200 nM; in series [1], 600 nM. The “cell volume loss remaining in presence of compound” value in the series with erythrocytes (volume loss without compound 26%) is 7%. Besides, the “basal K+-flux from sickle erythrocytes” value with sickle erythrocytes is on record as “normalised”. For the same compound, the “block of GCl from sickle cell erythrocytes” value in series [2] is listed as “equipotently blocked”. The toxicity to mice result in the series on mice is “non-toxic”.
